Entries after “also recorded” stand apart in the source; their conditions may differ.
Key:
[1] = system: mouse embryonic fibroblasts (MEFs); format: cell-based; settings: 3 h pre-treatment then palmitate 250 μM 3 h, 893 5 μM, myriocin 10 μM, fumonisin B1 30 μM, NAV-2729 12.5 μM, YM201636 800 nM, celastrol 500 nM
Experimental: Mitochondrial morphology was assessed by examining citrate synthesis expression under a high resolution microscopy. Specifically, the aspect ratio, branch length and roundness of mitochondria was assessed (FIG. 1).
LSL-KrasG12D mouse embryonic fibroblasts (MEFs) with and without Cre-mediated deletion of the STOP cassette were obtained from David Tuveson (Cold Spring Harbor Laboratory, Cold Spring Harbor N.Y., USA) in 2000. p53^flox/flox MEFs were derived in house (2015) from C57BL/6 mice using standard techniques and immortalized by transient expression of Cre recombinase and deletion of p53. MEFs were cultured and maintained in DMEM with 10% FBS and 1% penicillin-streptomycin. […] Stock solution of palmitic acid (ACROS Organics, cat # AC129702500) was prepared at 100 mM in ethanol. Palmitate (250 μM) was conjugated to 1% (w/v) fatty-acid free bovine serum albumin (Sigma, A8806) in DMEM at 37° C. for 20 min. For all immunofluorescence assays, 8,000 MEFs were seeded into 8-chamber slides (Cellvis, cat # C8-1.5H-N) 12-16 h before treatment. Cells were pre-treated with sphingolipid-like compound 893 (5 μM in water), myriocin (10 μM in methanol), fumonisin-B1 (30 μM in DMSO), or celastrol (500 nM in DMSO) for 3 h followed by a 3 h treatment with BSA-conjugated palmitate mixture or BSA alone.

[2] = system: C16:0 ceramide generation (CerS6); experiment: C16:0 ceramide levels in palmitate-treated MEFs (UPLC-MS/MS); format: cell-based, mouse
Experimental: Plasma pharmacokinetic analysis of sphingolipid-like compound 893 was performed by Pharmaron Corporation (Beijing, China). C16:0 ceramide levels were quantified in cells using the method described in (T. Kasumov, et al., Anal. Biochem. 401: 154-161, 2010, the disclosure of which is incorporated herein by reference) with minor modifications. Cultured cells were washed twice in PBS and scraped into 250 μL of HPLC grade water and flash frozen until time of analysis. On the day of analysis, samples were thawed, and an aliquot used for protein quantification. For C16:0 ceramide levels in mouse liver, 25 mg of tissue was homogenized in 1 ml of ice-cold PBS using a mechanical probe homogenizer (VWR, Radnor, Pa.), protein levels quantified, and 50 μl of the homogenate diluted with 150 μl HPLC-grade water for C16:0 ceramide analysis. Fifty ng of C17:0 ceramide prepared in ethanol (#22532, Cayman Chemical, Ann Arbor, Mich.) was added into 200 μL of the thawed cell suspension or liver homogenate as an internal standard to control for varying extraction efficiency; 750 μL of an ice-cold 1:2 chloroform/methanol mixture was then added. Samples were sonicated for 30 min and phase separation induced by the addition of 250 μL each of chloroform and HPLC-grade water. Samples were centrifuged at 4° C. for 10 min and the lower lipid phase transferred to a clean tube. The remaining protein and aqueous layers were re-extracted with an additional 500 μL of chloroform. Lipid phases were combined and then dried under vacuum. Dried extract was re-constituted in 100% acetonitrile immediately before analysis. Samples were analyzed by ultra-performance liquid chromatography tandem mass spectrometry (UPLC-MS/MS) using a Waters Micromass Quattro Premier XE equipped with a Waters ACQUITY BEH C4 column (Waters Corp.). Samples were resolved starting at 60% mobile phase A (10 mM ammonium acetate and 0.05% formic acid in water) to 98% mobile phase B (60:40 acetonitrile:isopropanol) over 3 min with a linear gradient, held at 98% B for 1 min, then the column was equilibrated with 60% A for 1 min. The mass spectrometer was operated in positive ion mode with the following parameters: cone voltage 20 V, source temperature 125° C., desolvation temperature 400° C. Ion transition channels for MS/MS were 538→264 for C16:0 ceramide and 552→264 for C17:0 ceramide, both with a dwell time of 285 ms. Standard curves prepared from C16:0 ceramide (#860516, Avanti Polar Lipids, Alabaster, Ala.) dissolved in ethanol were used for quantitation and were linear from 4.1 nM-1,000 nM, with an R^2 of 0.98 or greater.
3T3-L1 cells were maintained in DMEM with 10% FBS and 1% penicillin-streptomycin until induced to differentiate. […]

CCCCCCCCc1ccc([C@H]2CCN[C@@H]2CO)cc1.Cl [compound 893]
Protection from palmitate-induced mitochondrial fragmentation (aspect ratio, branch length, roundness) [1]: robust protection from both ceramide- and palmitate-induced mitochondrial fragmentation; also recorded: preserved a tubular, branched mitochondrial network in palmitate-treated cells
Palmitate-induced C16:0 ceramide production ([2]; MEFs, 3 h pre-treatment (893 5 μM, myriocin 10 μM, fumonisin B1 30 μM) then palmitate 250 μM 3 h): failed to block C16:0 ceramide generation; also recorded: without blocking palmitate-induced ceramide production
CerS6 inhibition ([2]; inferred from C16:0 ceramide generation in palmitate-treated cells): did not inhibit CerS6
